Series [1] relates to bacteria inoculated into the medium. As to conditions: nicotinic acid 0.1 M; three to four days. On the procedure:
(§1) The base ISTOR medium has the following composition:
(§2) The medium was prepared in potassium phosphate buffer at pH 5.7.

For a further series, the system named is fungi tested. Particulars: nicotinic acid 0.1 M; three to four days. On the procedure: as §1, §2

Regarding `O=C(O)c1cccnc1` [nicotinic acid], the solubility in water entry is “not very soluble in water”. In series [1], the growth of bacteria result was “none of the bacteria inoculated into the medium grew”. Further, the growth of fungi result with fungi tested was “all of the fungi tested exhibited growth”.

(Values after patent US20050042711A1, “Field test for fungi” (GEORGE MASON UNIVERSITY, priority 2003, published 2005).)
